Assay results taken from PubChem BioAssay (NCI).
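48-hour exposure; five concentrations; linearly interpolated endpoints. The concentration for 50% growth inhibition is given as GI50. TGI denotes the concentration required for complete inhibition of growth.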

Key:
Experiment in all cases: DTP human tumour cell line panel, 48 h
COLO 205 colon = test system: COLO 205 colon
PC-3 prostate = test system: PC-3 prostate
SF-268 CNS = test system: SF-268 CNS
OVCAR-5 ovarian = test system: OVCAR-5 ovarian
UACC-62 melanoma = test system: UACC-62 melanoma
T-47D breast = test system: T-47D breast
NCI-H460 lung = test system: NCI-H460 lung
DU-145 prostate = test system: DU-145 prostate
CAKI-1 renal = test system: CAKI-1 renal
NCI-H226 lung = test system: NCI-H226 lung
BT-549 breast = test system: BT-549 breast
MOLT-4 leukemia = test system: MOLT-4 leukemia
HCT-15 colon = test system: HCT-15 colon
MDA-MB-231 breast = test system: MDA-MB-231 breast
A549 NSCLC = test system: A549 NSCLC
RPMI-8226 leukemia = test system: RPMI-8226 leukemia
HOP-62 NSCLC = test system: HOP-62 NSCLC
MCF7 breast = test system: MCF7 breast
KM12 colon = test system: KM12 colon
MALME-3M melanoma = test system: MALME-3M melanoma
M14 melanoma = test system: M14 melanoma
TK-10 renal = test system: TK-10 renal
OVCAR-8 ovarian = test system: OVCAR-8 ovarian
SK-OV-3 ovarian = test system: SK-OV-3 ovarian
IGROV1 ovarian = test system: IGROV1 ovarian
RXF 393 renal = test system: RXF 393 renal
OVCAR-3 ovarian = test system: OVCAR-3 ovarian
U251 CNS = test system: U251 CNS
ACHN renal = test system: ACHN renal
CCRF-CEM leukemia = test system: CCRF-CEM leukemia
SNB-19 CNS = test system: SNB-19 CNS
LOX IMVI melanoma = test system: LOX IMVI melanoma
SK-MEL-5 melanoma = test system: SK-MEL-5 melanoma
786-0 renal = test system: 786-0 renal
SR leukemia = test system: SR leukemia
HT29 colon = test system: HT29 colon
NCI-H522 lung = test system: NCI-H522 lung
HS 578T breast = test system: HS 578T breast
NCI-H23 lung = test system: NCI-H23 lung
HOP-92 NSCLC = test system: HOP-92 NSCLC
MDA-MB-435 = test system: MDA-MB-435
NCI/ADR-RES ovarian = test system: NCI/ADR-RES ovarian
SF-539 CNS = test system: SF-539 CNS
HCC-2998 colon = test system: HCC-2998 colon
HCT-116 colon = test system: HCT-116 colon
UACC-257 melanoma = test system: UACC-257 melanoma
SN12C renal = test system: SN12C renal
UO-31 renal = test system: UO-31 renal
SW-620 colon = test system: SW-620 colon
SF-295 CNS = test system: SF-295 CNS
SK-MEL-28 melanoma = test system: SK-MEL-28 melanoma
A498 renal = test system: A498 renal
SK-MEL-2 melanoma = test system: SK-MEL-2 melanoma
OVCAR-4 ovarian = test system: OVCAR-4 ovarian
K-562 leukemia = test system: K-562 leukemia
SNB-75 CNS = test system: SNB-75 CNS

## O=C1C(Cl)=C(Nc2cccc(F)c2)C(=O)N1Cc1ccc(Cl)cc1
COLO 205 colon
  GI50: 0.516 µM
  TGI: 11.9 µM
PC-3 prostate
  GI50: 0.526 µM
  TGI: 4.53 µM
SF-268 CNS
  GI50: 1.43 µM
  TGI: 8.07 µM
OVCAR-5 ovarian
  GI50: 4.58 µM
  TGI: 22.4 µM
UACC-62 melanoma
  TGI: 2.48 µM
T-47D breast
  GI50: 3.57 µM
  TGI: 27.7 µM
NCI-H460 lung
  GI50: 1.08 µM
DU-145 prostate
  GI50: 2.67 µM
  TGI: 8.44 µM
CAKI-1 renal
  GI50: 1.71 µM
  TGI: 13.8 µM
NCI-H226 lung
  GI50: 0.188 µM
  TGI: 0.852 µM
BT-549 breast
  GI50: 0.841 µM
  TGI: 13.4 µM
MOLT-4 leukemia
  GI50: 0.506 µM
  TGI: > 100 µM
HCT-15 colon
  GI50: 0.398 µM
MDA-MB-231 breast
  GI50: 0.242 µM
  TGI: 4.7 µM
A549 NSCLC
  GI50: 1.73 µM
  TGI: 16.9 µM
RPMI-8226 leukemia
  GI50: 0.502 µM
  TGI: 14.2 µM
HOP-62 NSCLC
  GI50: 0.974 µM
  TGI: 7.19 µM
MCF7 breast
  GI50: 1.06 µM
  TGI: 7.91 µM
KM12 colon
  GI50: 2.66 µM
  TGI: 19.1 µM
MALME-3M melanoma
  GI50: 1.42 µM
  TGI: 10.8 µM
M14 melanoma
  GI50: 1.2 µM
  TGI: 4.35 µM
TK-10 renal
  GI50: 5.7 µM
  TGI: 19.3 µM
OVCAR-8 ovarian
  GI50: 0.759 µM
  TGI: 8.83 µM
SK-OV-3 ovarian
  GI50: 2.59 µM
  TGI: 17.6 µM
IGROV1 ovarian
  GI50: 2.92 µM
  TGI: 16.9 µM
RXF 393 renal
  GI50: 0.39 µM
  TGI: 4.91 µM
OVCAR-3 ovarian
  GI50: 1.19 µM
  TGI: 6.84 µM
U251 CNS
  GI50: 0.337 µM
  TGI: > 32 µM
ACHN renal
  GI50: 2.54 µM
  TGI: 15.2 µM
CCRF-CEM leukemia
  GI50: 0.118 µM
  TGI: 11.1 µM
SNB-19 CNS
  GI50: 2.57 µM
  TGI: 16.1 µM
LOX IMVI melanoma
  GI50: 0.649 µM
  TGI: 3.41 µM
SK-MEL-5 melanoma
  GI50: 0.403 µM
  TGI: 2.19 µM
786-0 renal
  GI50: 0.305 µM
  TGI: 3.98 µM
SR leukemia
  GI50: 0.128 µM
HT29 colon
  GI50: 0.911 µM
  TGI: 12.9 µM
NCI-H522 lung
  GI50: 3.09 µM
  TGI: 13.3 µM
HS 578T breast
  GI50: 2.86 µM
  TGI: 9.28 µM
NCI-H23 lung
  GI50: 0.832 µM
  TGI: 14.4 µM
HOP-92 NSCLC
  GI50: 11.4 µM
  TGI: 26.2 µM
MDA-MB-435
  GI50: 0.665 µM
  TGI: 2.3 µM
NCI/ADR-RES ovarian
  GI50: 0.426 µM
  TGI: 5.61 µM
SF-539 CNS
  GI50: 1.03 µM
  TGI: 4.04 µM
HCC-2998 colon
  GI50: 0.935 µM
  TGI: 4.88 µM
HCT-116 colon
  GI50: 0.392 µM
  TGI: 2.7 µM
UACC-257 melanoma
  GI50: 3.95 µM
  TGI: 20.8 µM
SN12C renal
  GI50: 0.825 µM
  TGI: 4.81 µM
UO-31 renal
  GI50: 3.69 µM
  TGI: 35.9 µM
SW-620 colon
  GI50: 0.531 µM
  TGI: 13 µM
SF-295 CNS
  GI50: 1.16 µM
  TGI: 10.9 µM
SK-MEL-28 melanoma
  GI50: 2.96 µM
  TGI: 20.6 µM
A498 renal
  GI50: 2.42 µM
  TGI: 8.99 µM
SK-MEL-2 melanoma
  GI50: 5.96 µM
  TGI: > 28.4 µM
OVCAR-4 ovarian
  GI50: 4.04 µM
  TGI: 24.6 µM
K-562 leukemia
  GI50: 0.206 µM
  TGI: > 32.1 µM
SNB-75 CNS
  GI50: 0.438 µM
  TGI: 7.63 µM
